Consider nine compounds from patent US20250066386A1, “INHIBITORS OF KRAS” (BIOMEA FUSION, INC., priority 2022, published 2025).

pIC50: −log10 of the molar value. Read-outs that look alike come from different tables or passages of the source.

The subject of the assay is human KRAS G12C mutated cell line MIA PaCa-2. In words: KRas G12C in vitro inhibitory activity: cell proliferation, CellTiter-Glo. It is filed as cell-based. The note with it: Homo sapiens.
From the text: The present example evaluates the ability of compounds provided herein to inhibit proliferation of KRAS mutant cells.
The inhibitory effect on cell proliferation was investigated in the human KRAS G12C mutated cell line MIA PaCa-2 (Yunis et al., 1977, Int. J. Cancer 19(1):128-135; ATCC catalog no. CRL-1420). Cells were maintained in RPMI-1640 medium (ThermoFisher catalog no. 61870036) supplemented with 10% of Heat Inactivated FBS (ThermoFisher catalog no. A31605) and 1% Pen-Strep (ThermoFisher catalog no. 10378016) and cultured at 37° C. in a humidified incubator with 5% CO2. Cells were grown by adhering to culture flasks, and maintained at 70%-80% confluency.
ATP is present in all metabolically active cells and is considered as a marker for viable cells. The number of metabolically active live cells in culture was determined using the CellTiter-Glo kit (Promega catalog no. G7572), an ATP monitoring system based on the production of luminescence by the reaction of ATP with added UltraGlo® recombinant luciferase (Kawano et al., 2016, PLOS One, 8; 11(7):e0158888), according to the supplier's experimental recommendations. The cell proliferation assay was based on a 96 well plate format.
Test compounds were dissolved at 10 mM in DMSO (Sigma catalog no. D8418; purity >99.9%) and stored at −20° C. Eight concentrations of test compound were assessed in duplicate in an individual test occasion in parallel in the selected cell lines. MRTX-849 and AMG-510 were used as reference compounds and tested in duplicate at eight concentrations. 100% of proliferation is represented by the untreated cells (0.2% DMSO).
On the day of the experiment (TO), cells were detached with TrypLE (ThermoFisher catalog no. 12604054), quantified using the cell viability analyser NucleoCounter (Chemometec NC-200) and resuspended in fresh medium at a cell density of about 5000 cells per 200 μL medium. 200 μL of cell suspension were added to each well of a 96 well plate.
Two hours after seeding cells, compounds were added at desired concentrations using a D300e compound dispenser (Life Sciences Tecan D300) with shaking after each compound addition. Assay plates were incubated at 37° C. in a humidified incubator with 5% CO2.
(§1) To measure 3 day inhibition of cell proliferation on day 3 (T3), assay plates were equilibrated to room temperature for approximately 15 min, and the Promega CellTiterGlo® reagent was added at 40 μL/well. Contents were mixed for 5 min on an orbital shaker to induce cell lysis, and then incubated at room temperature for an additional 10 min in the dark to stabilize the luminescent signal. Luminescence was read using a GloMax GM300 plate reader (Promega) using the luminescence for 96 well plate standard protocol.
as §1, with “measure 7” for “measure 3”, “(T3), 150 μL of growth media was removed from each well of the assay plates and replaced with 150 uL fresh growth media, and fresh compounds added using a D300e compound dispenser (Life Sciences Tecan D300) at desired concentrations with shaking between each compound addition. Assay plates were incubated at 37° C. in a humidified incubator with 5% CO2. On day 7 (T7)” for “(T3),”
Data was expressed as % of inhibition compared to the 0.2% DMSO negative no drug control, and is calculated as follows: % inhibition=100−[(RLU sample)×100/(RLU average controls*)], where * indicates the average for 0.2% DMSO.
Results were analyzed by GraphPad (Prism) and IC50 values were calculated by non-linear regression using four parameter-logistic equation. […]

The mark [1] stands for this setting: MIA PaCa-2, 72 h, 3 day inhibition of cell proliferation, CellTiter-Glo luminescence, read-out: MIA PaCa-2 Day 3 IC50.
[2] abbreviates: MIA PaCa-2, 7 day inhibition of cell proliferation, medium and compound renewed on day 3, CellTiter-Glo luminescence, read-out: MIA PaCa-2 Day 7 IC50.

Turning to `CCn1c(-c2cccnc2[C@H](C)OC)c2c3cc(ccc31)-c1cccc(c1)C[C@H](NC(=O)[C@H](C(C)C)N(C)C(=O)[C@H]1CCN(C/C=C/C(=O)N(C)C)C1)C(=O)N1CCC[C@H](N1)C(=O)OCC(C)(C)C2` (atropisomer, axis not shown) [Compound 101, (3S)-1-((E)-4-(dimethylamino)-4-oxobut-2-en-1-yl)-N-((2S)-1-(((6^3S,4S)-1^1-ethyl-1^2-(2-((S)-1-methoxyethyl)pyridin-3-yl)-10,10-dimethyl-5,7-dioxo-6^1,6^2,6^3,6^4,6^5,6^6-hexahydro-1^1H-8-oxa-1(5,3)-indola-6(1,3)-pyridazina-2(1,3)-benzenacycloundecaphane-4-yl)amino)-3-methyl-1-oxobutan-2-yl)-N-methylpyrrolidine-3-carboxamide], the pIC50 runs as follows: under setting [1], 7.00 to 8.00; under setting [2], 7.00 to 8.00.

Turning to `CCn1c(-c2cccnc2[C@H](C)OC)c2c3cc(ccc31)-c1cccc(c1)C[C@H](NC(=O)[C@H](C(C)C)N(C)C(=O)[C@H]1CCN(C(=O)C#CCN(C)C)C1)C(=O)N1CC[C@@H](C1)C(=O)OCC(C)(C)C2` (atropisomer, axis not shown) [Compound 102, (3S)-1-(4-(dimethylamino)but-2-ynoyl)-N-((2S)-1-(((6^3S,4S)-1^1-ethyl-1^2-(2-((S)-1-methoxyethyl)pyridin-3-yl)-10,10-dimethyl-5,7-dioxo-1^1H-8-oxa-1(5,3)-indola-6(1,3)-pyrrolidina-2(1,3)-benzenacycloundecaphane-4-yl)amino)-3-methyl-1-oxobutan-2-yl)-N-methylpyrrolidine-3-carboxamide], the pIC50 under setting [1] is below 7.00.

Take `CCn1c(-c2cccnc2[C@H](C)OC)c2c3cc(ccc31)-c1csc(n1)C[C@H](NC(=O)[C@H](C(C)C)N(C)C(=O)[C@H]1CCN(CC#CC(=O)N3CC(F)C3)C1)C(=O)N1CCC[C@H](N1)C(=O)OCC(C)(C)C2` (atropisomer, axis not shown) [Compound 118, (3S)—N-((2S)-1-(((6^3S,4S,Z)-1^1-ethyl-1^2-(2-((S)-1-methoxyethyl)pyridin-3-yl)-10,10-dimethyl-5,7-dioxo-6^1,6^2,6^3,6^4,6^5,6^6-hexahydro-1^1H-8-oxa-2(4,2)-thiazola-1(5,3)-indola-6(1,3)-pyridazinacycloundecaphane-4-yl)amino)-3-methyl-1-oxobutan-2-yl)-1-(4-(3-fluoroazetidin-1-yl)-4-oxobut-2-yn-1-yl)-N-methylpyrrolidine-3-carboxamide]: the pIC50 reads like this: under setting [1], below 7.00; under setting [2], 8.00 to 9.00.

For the compound `CCn1c(-c2cccnc2[C@H](C)OC)c2c3cc(ccc31)-c1csc(n1)C[C@H](NC(=O)[C@H](C(C)C)N(C)C(=O)[C@H]1CCN(CC#CC(=O)N3CCC3)C1)C(=O)N1CCC[C@H](N1)C(=O)OCC(C)(C)C2` (atropisomer, axis not shown) [Compound 116, (3S)-1-(4-(azetidin-1-yl)-4-oxobut-2-yn-1-yl)-N-((2S)-1-(((6^3S,4S,Z)-1^1-ethyl-1^2-(2-((S)-1-methoxyethyl)pyridin-3-yl)-10,10-dimethyl-5,7-dioxo-6^1,6^2,6^3,6^4,6^5,6^6-hexahydro-1^1H-8-oxa-2(4,2)-thiazola-1(5,3)-indola-6(1,3)-pyridazinacycloundecaphane-4-yl)amino)-3-methyl-1-oxobutan-2-yl)-N-methylpyrrolidine-3-carboxamide], the pIC50 is, setting by setting: under setting [1], below 7.00; under setting [2], 8.00 to 9.00.

Turning to `CCn1c(-c2cccnc2[C@H](C)OC)c2c3cc(ccc31)-c1cccc(c1)C[C@H](NC(=O)[C@H](C(C)C)N(C)C(=O)[C@H]1CCN(C(=O)C#CCN(C)C)C1)C(=O)N1CC[C@H](C1)C(=O)OCC(C)(C)C2` (atropisomer, axis not shown) [Compound 103, (3S)-1-(4-(dimethylamino)but-2-ynoyl)-N-((2S)-1-(((6^3R,4S)-1^1-ethyl-1^2-(2-((S)-1-methoxyethyl)pyridin-3-yl)-10,10-dimethyl-5,7-dioxo-1^1H-8-oxa-1(5,3)-indola-6(1,3)-pyrrolidina-2(1,3)-benzenacycloundecaphane-4-yl)amino)-3-methyl-1-oxobutan-2-yl)-N-methylpyrrolidine-3-carboxamide], the pIC50 under setting [1] is below 7.00.

With `CCn1c(-c2cccnc2[C@H](C)OC)c2c3cc(ccc31)-c1cccc(c1)C[C@H](NC(=O)[C@H](C(C)C)N(C)C(=O)[C@H]1CCN(C/C=C/C(=O)N3CC(F)(F)C3)C1)C(=O)N1CCC[C@H](N1)C(=O)OCC(C)(C)C2` (atropisomer, axis not shown) [Compound 115, (3S)-1-((E)-4-(3,3-difluoroazetidin-1-yl)-4-oxobut-2-en-1-yl)-N-((2S)-1-(((6^3S,4S)-1^1-ethyl-1^2-(2-((S)-1-methoxyethyl)pyridin-3-yl)-10,10-dimethyl-5,7-dioxo-6^1,6^2,6^3,6^4,6^5,6^6-hexahydro-1^1H-8-oxa-1(5,3)-indola-6(1,3)-pyridazina-2(1,3)-benzenacycloundecaphane-4-yl)amino)-3-methyl-1-oxobutan-2-yl)-N-methylpyrrolidine-3-carboxamide], the negative logarithm of the IC50 (pIC50) under setting [1] is above 9.00.

`CCn1c(-c2cccnc2[C@H](C)OC)c2c3cc(ccc31)-c1csc(n1)C[C@H](NC(=O)[C@H](C(C)C)N(C)C(=O)[C@H]1CCN(C/C=C/C(=O)N(C)C)C1)C(=O)N1CCC[C@H](N1)C(=O)OCC(C)(C)C2` (atropisomer, axis not shown) [Compound 111, (3S)-1-((E)-4-(dimethylamino)-4-oxobut-2-en-1-yl)-N-((2S)-1-(((6^3S,4S,Z)-1^1-ethyl-1^2-(2-((S)-1-methoxyethyl)pyridin-3-yl)-10,10-dimethyl-5,7-dioxo-6^1,6^2,6^3,6^4,6^5,6^6-hexahydro-1^1H-8-oxa-2(4,2)-thiazola-1(5,3)-indola-6(1,3)-pyridazinacycloundecaphane-4-yl)amino)-3-methyl-1-oxobutan-2-yl)-N-methylpyrrolidine-3-carboxamide]: the pIC50 under setting [1] is 7.00 to 8.00.

As for `CCn1c(-c2cccnc2[C@H](C)OC)c2c3cc(ccc31)-c1csc(n1)C[C@H](NC(=O)[C@H](C(C)C)N(C)C(=O)[C@H]1CCN(C(C)C#CC(=O)N(C)C)C1)C(=O)N1CCC[C@H](N1)C(=O)OCC(C)(C)C2` (stereo partly drawn) [Compound 114, (3S)-1-(5-(dimethylamino)-5-oxopent-3-yn-2-yl)-N-((2S)-1-(((63S,4S,Z)-1^1-ethyl-1^2-(2-((S)-1-methoxyethyl)pyridin-3-yl)-10,10-dimethyl-5,7-dioxo-6^1,6^2,6^3,6^4,6^5,6^6-hexahydro-11H-8-oxa-2(4,2)-thiazola-1(5,3)-indola-6(1,3)-pyridazinacycloundecaphane-4-yl)amino)-3-methyl-1-oxobutan-2-yl)-N-methylpyrrolidine-3-carboxamide], the pIC50 under setting [1] was above 9.00.

Regarding `CCn1c(-c2cccnc2[C@H](C)OC)c2c3cc(ccc31)-c1cccc(c1)C[C@H](NC(=O)[C@H](C(C)C)N(C)C(=O)[C@H]1CCN(C/C=C/C(=O)N3CC(F)C3)C1)C(=O)N1CCC[C@H](N1)C(=O)OCC(C)(C)C2` (atropisomer, axis not shown) [Compound 110, (3S)—N-((2S)-1-(((6^3S,4S)-1^1-ethyl-1^2-(2-((S)-1-methoxyethyl)pyridin-3-yl)-10,10-dimethyl-5,7-dioxo-6^1,6^2,6^3,6^4,6^5,6^6-hexahydro-1^1H-8-oxa-1(5,3)-indola-6(1,3)-pyridazina-2(1,3)-benzenacycloundecaphane-4-yl)amino)-3-methyl-1-oxobutan-2-yl)-1-((E)-4-(3-fluoroazetidin-1-yl)-4-oxobut-2-en-1-yl)-N-methylpyrrolidine-3-carboxamide], the pIC50 under setting [1] was above 9.00.

A word on the pIC50: it is the IC50 on a negative log10 scale, so that one unit is a factor of ten.
